Where two headings read alike, the source gives them in different places. Marks after values point to notes of the source that are not given here.
Columns and labels:
rats = assay: Sedative activity measured using an activity chamber; type: in vivo, rat; conditions: for Sedation (%): 30 minutes after dosing; for sedation (in words): intrathecal or intraperitoneal, rats
Description: (§1) Alleviation of pain including neuropathic pain is another example of a disorder in which the compounds of the invention are useful and advantageous since pain is alleviated without undesirable side effects. […] (See, for example, Kim, S. and Chung, J. “An experimental model for peripheral neuropathy produced by segmental spinal nerve ligation in the rat.” Pain 50 pp. 355-363 (1992).) Following ligation of two spinal nerves, the animals develop a sensitivity to normally non-painful stimuli such as touch. The ability of alpha2 compounds to reverse this sensitivity, called allodynia, was tested 30 minutes after dosing by either intrathecal or intraperitoneal administration. The sedative activity of each compound was also measured using an activity chamber.

[1] = target: T1, rat α2B (RNG gene) receptor (Rattus norvegicus, UniProt P19328); assay: RSAT (Receptor Selection and Amplification Technology) assay, alpha 2B; type: cell-based; conditions: ratio of maximal effect to that of standard full agonist oxymetazoline
T1 construct: expressed in transfected cells; host or cells: NIH-3T3 cells, calcium phosphate cotransfection
T1 sequence (P19328 1-453): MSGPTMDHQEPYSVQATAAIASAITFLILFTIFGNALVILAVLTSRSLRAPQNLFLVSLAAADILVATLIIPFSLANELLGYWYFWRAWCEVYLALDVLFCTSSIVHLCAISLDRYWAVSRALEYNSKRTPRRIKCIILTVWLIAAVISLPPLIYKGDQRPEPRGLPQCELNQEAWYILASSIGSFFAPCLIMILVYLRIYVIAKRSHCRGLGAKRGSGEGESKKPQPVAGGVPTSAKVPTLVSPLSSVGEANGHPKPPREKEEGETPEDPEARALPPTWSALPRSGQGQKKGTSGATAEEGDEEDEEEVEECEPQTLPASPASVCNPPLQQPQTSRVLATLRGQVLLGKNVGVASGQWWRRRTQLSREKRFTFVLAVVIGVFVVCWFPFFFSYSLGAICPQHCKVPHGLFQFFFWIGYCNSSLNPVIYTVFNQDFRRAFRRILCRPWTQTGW
Method in brief: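 NIH-3T3 cells transiently cotransfected with receptor, hybrid Gq/i5 protein and β-galactosidase marker were incubated with compound dilutions in triplicate for 72-96 hr at 37°. Proliferation was read as β-galactosidase activity (o-nitrophenyl-β-D-galactopyranoside, overnight at 30°, OD 420 nm). EC50 and efficacy were derived, the latter relative to a standard full agonist's maximal effect.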

[2] = test system: rats with ligation of two spinal nerves; assay: Spinal nerve ligation model of neuropathic pain, reversal of tactile allodynia; type: in vivo, rat; conditions: for Reversal of Tactile Allodynia (%): 30 minutes after dosing
Description: as §1

[3] = test system: cynomolgus monkeys with sustained elevated IOP; assay: IOP lowering in conscious monkeys, eyes made hypertensive by argon laser photocoagulation; type: in vivo, cynomolgus monkey; conditions: Macaca fascicularis, topical, single 50 μl eye drop, up to 6 hours, read-out: Maximum % Decrease From Pretreatment Levels Hypertensive Eye (IOP); for inhibition in vivo at 0.1 %: ocular dose 0.1%; for inhibition in vivo at 0.3 %: ocular dose 0.3%; for inhibition in vivo at 0.03 %: ocular dose 0.03%; for inhibition in vivo at 1 %: ocular dose 1%
Description: Measurements of IOP were made in fully conscious female cynomolgus monkeys weighing 3-4 kg with sustained elevated IOP that was produced in the right eye by argon laser photocoagulation of the trabecular meshwork. Animals were usable for experiments 2 months following surgery. During the experiments, monkeys sat in specially designed chairs (Primate Products, San Francisco), and were fed orange juice and fruit as needed. A 30R model Digilab pneumatonometer (Alcon, Tex.) was used to measure IOP.
Twenty five μl of an anesthetic (proparacaine) was topically applied to each monkey before IOP measurements to minimize ocular discomfort due to tonometry. Two baseline measurements were made prior to instillation of the drugs, followed by periodic measurements up to 6 hours post-instillation. The test compounds were administered unilaterally as a single 50 μl eye drop; the contralateral eyes received an equal volume of saline.

[4] = test system: rat retinal ganglion cells after optic nerve injury; assay: Calibrated rat optic nerve injury model, retinal ganglion cell numbers; type: in vivo
Description: These models include light-induced photoreceptor degeneration in albino rat, as described in Wen et al, “Alpha2-adrenergic agonists induce basic fibroblast growth factor expression in photoreceptors in vivo and ameliorate light damage.” J. Neurosci. […] Invest. Ophthalmol. Vis. Sci. 37, 540,S114. […] Additionally commonly assigned and co-pending application, 08/496,292 filed on 28 Jun.

[5] = test system: conscious cynomolgus monkeys; assay: Sedation score during the IOP experiments; type: in vivo, cynomolgus monkey; parameters: key to Sedation (0-4): 0=alert, typical vocalization, movement, etc.; 1=calm, less movement; 2=slightly sedated, some vocalization, responsive to stimulation; 3=sedated, no vocalization, some response to stimulation; 4=asleep; conditions: for sedation (in words): ocular administration, monkeys
Procedure: At the same time, sedation was measured and assessed according to the following score: 0=alert, typical vocalization, movement, etc.; 1=calm, less movement; 2=slightly sedated, some vocalization, responsive to stimulation; 3=sedated, no vocalization, some response to stimulation; 4=asleep.

[6] = test system: conscious cynomolgus monkeys; assay: Cardiovascular side effects (blood pressure, heart rate) after i.v. administration; type: in vivo, cynomolgus monkey; conditions: up to 6 hours, + with * = increase from base levels
Description: Cardiovascular measurements were made in a different group of monkeys using a BP 100S automated sphygmomanometer (Nippon Colin,. Japan).

Row | Structure (SMILES) | sedation (in words) (rats) | Intrinsic Activity Relative to Oxymetazoline, Alpha 2B [1] | inhibition in vivo at 0.1 % ([3]; 6 h) | inhibition in vivo at 0.3 % ([3]; 6 h) | Sedation (0-4) ([5]; ocular dose 0.1%) | Sedation (0-4) ([5]; ocular dose 0.3%) | Maximum % Decrease From Pretreatment Levels, Heart Rate ([6]; i.v. 500 μg/kg) | Maximum % Decrease From Pretreatment Levels, Mean Arterial Blood Pressure ([6]; i.v. 500 μg/kg) | Sedation (0-4) ([5]; ocular dose 1%) | Maximum % Decrease From Pretreatment Levels, Heart Rate ([6]; i.v. 17 μg/kg) | Maximum % Decrease From Pretreatment Levels, Mean Arterial Blood Pressure ([6]; i.v. 17 μg/kg) | Maximum % Decrease From Pretreatment Levels, Heart Rate ([6]; i.v. 50 μg/kg) | Maximum % Decrease From Pretreatment Levels, Mean Arterial Blood Pressure ([6]; i.v. 50 μg/kg) | other results
1 | Cl.O=C1C2=C(CCCC2)CCC1Cc1c[nH]cn1 (stereo not shown) [Example N-1, 2-(1H-imidazol-4(5)-ylmethyl)-3,4,5,6,7,8-hexahydro-2H-naphthalen-1-one, hydrochloride salt] | without causing sedation, even at very high doses | 0.75 | – | – | – | – | – | – | – | – | – | – | – | Sedation (%) (rats; intraperitoneal 10,000 mg/kg): 0%; Sedation (%) (rats; intrathecal 30 μg): 0%; Sedation (%) (rats; intrathecal 300 μg): 0%; Reversal of Tactile Allodynia (%) ([2]; intraperitoneal 3 mg/kg): 3%; Reversal of Tactile Allodynia (%) ([2]; intraperitoneal 30 mg/kg): 41* %; Reversal of Tactile Allodynia (%) ([2]; intrathecal 3 μg): 13%; Reversal of Tactile Allodynia (%) ([2]; intrathecal 30 μg): 64* %; alleviation of allodynia (in words) ([2]; intrathecal or intraperitoneal, rats): able to alleviate the allodynia
2 | Cl.O=C1c2ccsc2CCC1Cc1c[nH]cn1 (stereo not shown) [Example B-9b, 5-(1H-imidazol-4(5)-ylmethyl)-6,7-dihydro-5H-benzo[b]thiophen-4-one, hydrogen chloride salt] | – | 0.68 | 18.7 ± 5.5% | 26.9 ± 6.1% | 0 | 0 | +20.2 ± 3.4* % | 2.8 ± 1.8% | – | – | – | – | – | Retinal Ganglion Cell Numbers at 2 Weeks Post-Injury ([4]; 0.5 mg/kg i.p., vehicle control 33 ± 8): 73 ± 12 cells/microscopic field; neuroprotection (in words) ([4]; calibrated rat optic nerve injury model): neuroprotective
3 | c1nc(CC2CCc3sccc3C2)c[nH]1 (stereo not shown) [Example B-9a, 4(5)-(4,5,6,7-tetrahydrobenzo[b]thiophen-5-ylmethyl)-1H-imidazole] | – | 0.46 | – | – | 0 | 0 | +23.8 ± 4.4* % | +10.8 ± 3.2* % | 0 | – | – | – | – | inhibition in vivo at 0.03 % [3]: 17.6 ± 1.7%; inhibition in vivo at 0.1 % [3]: 26.7 ± 6.1%; inhibition in vivo at 0.3 % [3]: 24.8 ± 3.3%; inhibition in vivo at 1 % [3]: 26.8 ± 5.4%; Sedation (0-4) ([5]; ocular dose 0.03%): 0
4 | Clc1cccc(Cl)c1N=C1NCCN1 [clonidine, reference compound] | cause sedation at doses only slightly higher than their anti-allodynic doses | – | – | 41 ± 5% | 1 | 2 | – | – | – | 32 ± 4% | 29 ± 7% | 50 ± 5% | 35 ± 5% | Sedation (%) (rats; intrathecal 1 μg): 15%; Sedation (%) (rats; intrathecal 10 μg): 60* %; sedation (in words) [5]: caused sedation; Reversal of Tactile Allodynia (%) ([2]; intrathecal 0.1 μg): 20* %; Reversal of Tactile Allodynia (%) ([2]; intrathecal 1 μg): 96* %
5 | Brc1c(NC2=NCCN2)ccc2nccnc12 [brimonidine, reference compound] | cause sedation at doses only slightly higher than their anti-allodynic doses | – | 25 ± 3% | 40 ± 4% | 1 | 2 | – | – | – | 52 ± 3% | 36 ± 3% | 54 ± 3% | 37 ± 5% | Sedation (%) (rats; intraperitoneal 30 mg/kg): 24%; Sedation (%) (rats; intraperitoneal 300 mg/kg): 67* %; sedation (in words) [5]: caused sedation; Reversal of Tactile Allodynia (%) ([2]; intraperitoneal 3 mg/kg): 0%; Reversal of Tactile Allodynia (%) ([2]; intraperitoneal 30 mg/kg): 37* %
6 | c1ccc2c(c1)CCC(Cc1c[nH]cn1)C2 (stereo not shown) [Example B-3b, 4(5)-(1,2,3,4-tetrahydronaphthalen-2-ylmethyl)-1H-imidazole] | – | 0.7 | 25.9 ± 3.5% | 31.2 ± 4.3% | 0 | 0 | – | – | – | – | – | 10.0 ± 2.8% | 2.4 ± 4.3% | –
7 | c1ccc2sc(Cc3c[nH]cn3)cc2c1 [Example C-9, 4(5)-benzo[b]thiophen-2-ylmethyl-1H-imidazole] | – | 0.88 | – | – | – | 0 | 5.9 ± 3.3% | 6.0 ± 2.2% | 0 | +9.4 ± 1.8* % | 1.0 ± 4.1% | 16 ± 3.2% | 0.1 ± 3.8% | inhibition in vivo at 0.3 % [3]: 13.7 ± 4.5%; inhibition in vivo at 1 % [3]: 25.1 ± 4.9%; Maximum % Decrease From Pretreatment Levels, Heart Rate ([6]; i.v. 3.0 μg/kg): 9.4 ± 3.0%; Maximum % Decrease From Pretreatment Levels, Mean Arterial Blood Pressure ([6]; i.v. 3.0 μg/kg): 5.0 ± 2.3%
8 | c1ccc2c(c1)CC[C@H](Cc1c[nH]cn1)C2 [Example J-2, (S)-4(5)-(1,2,3,4-tetrahydronaphthalen-2-ylmethyl)-1H-imidazole] | – | 0.8 | – | – | – | 0 | 6.4 ± 3.3% | +0.6 ± 3.1* % | – | – | – | – | – | inhibition in vivo at 0.03 % ([3]; 6 h): 12.4 ± 3.7%; Sedation (0-4) ([5]; ocular dose 0.03%): 0
9 | Cc1ccc(Cc2c[nH]cn2)o1 [Example C-7, 4(5)-(5-methylfuran-2-ylmethyl)-1H-imidazole] | – | 0.73 | – | – | – | – | 6.1 ± 3.7% | 3.0 ± 3.9% | 0 | – | – | – | – | inhibition in vivo at 1 % ([3]; 6 h): 32.3 ± 5.7%
